Results as given in patent US20260077055A1, “COMPOSITIONS OF POLYPLEXES AND SAPONINS” (SAPREME TECHNOLOGIES B.V., priority 2022, published 2026).
Where a SMILES comes first, the peptide text is derived from it. [ ]: non-standard residue; d: D form. Lys(N3) = [N-]=[N+]=NCCCC[C@H](N)C(=O)O

Assays:
EGFR+ A431 cells = experiment: Cell viability (MTS) after polyplex transfection of A431 cells; assay type: cell-based; details: for cell killing activity / saporin gene delivery, K16C npSaporin polyplexes: K16C alone up to about 5000 μM of plasmids (printed), SO1861-EMCH = free, co-administered with K16C-polyplexes
Description: Spectrophotometry: Concentrations were determined using either a Thermo Nanodrop 2000 spectrometer or Perkin Elmer Lambda 365 Spectrophotometer. DLS measurements: DLS measurements were performed on a Malvern Nano ZS (Malvern Instruments, U.K.), operating at 633 nm with a 173° scattering angle, at 25 or 37° C. DLS mean diameters were obtained from the intensity particle size distribution provided by Malvern Zetasizer Software. DLS histograms were obtained from the intensity particle size distributions. Zeta-potential: The zeta-potential values of the polyplexes were obtained by laser doppler anemometry (LDA), measuring the mean electrophoretic mobility (Malvern Zetasizer Nano ZS, Malvern Instruments, U.K.). Measurements were performed in 10 mM HEPES pH 7.1, 150 mM NaCl. TEM measurements: TEM measurements were performed on a JEOL JEM-1011 operated at 100 kV electron microscope, equipped with a camera S5 MegaView G2. A drop of a solution of polyplexes (0.1 mg/mL) was settled on a PELCO® TEM carbon type-B film copper grid and allowed to dry at room temperature for 1 h. Infrared Spectroscopy: FT-IR spectra were recorded on a Bruker Vertex 70v, equipped with a RockSolid interferometer, after preparing the samples (1-2 mg) as KBr pellets. Spectra were processed using OPUS 7.8 software (Bruker). NMR Spectroscopy: 1H NMR spectra were recorded on a 11.7 T Bruker DRX-500 spectrometer. Chemical shifts are reported in ppm (o units) downfield from the HOD residual solvent peak (CD3OD). Experiments were recorded acquiring 64-512 scans, with a pre-scan delay (d1) of 12 s, and an acquisition time (aq) of 4 s at 300 K. 13C NMR spectrum was recorder on a 9.39 T Varian Innova 400 spectrometer. MestReNova 14.2 software (Mestrelab Research) was used for spectra processing. Cell culture conditions and treatments: HEK293FT, A431, A2058, Neuro2A, Hepa1-6 and MDA-MB 468 were maintained in 10% FBS-supplemented DMEM medium (PAN-Biotech GmbH, or Lonza Group, Basel, Switzerland)+Pen/Strep at 37° C. with 5% CO2. […] SO1861-EMCH was conjugated into/onto these polyplexes or co-administrated at 966 or 4000 nM to the different cell lines in vitro (as indicated). For this, cells were seeded in a 96 well plate at 5.000-10.000 c/w in 100 μL/well and incubated overnight at 37° C. Before treatment, the mAb-SO1861 and polyplexes were diluted separately in DPBS (PAN-Biotech GmbH) to 10× the required final concentration. The cells received 80 μL/well fresh media, followed by 20 μL/well polyplex solution and 20 μL/well saponin solution. In particular, before K16-polyplex treatments, K16-polyplexes were formulated in 10 mM HEPES, incubated for 30 min at room temperature and then diluted with complete cell culture medium. The complete cell culture medium was exchanged against 100 μL transfection medium. For co-administration of SO1861-EMCH, the transfection medium was supplemented with 2 μg/mL (=966 nM) SO1861-EMCH. Control transfections were performed with Lipofectamine™ 3000 Transfection Reagent (Thermo Fisher Scientific) according to the manufacturer's instruction, using either […] or 100 ng plasmid and with a media change 4-5 hrs after transfection. […] After treatment, the cells were incubated for 72 hr at 37° C. before the cell viability was determined by a MTS-assay performed according to the manufacturer's instruction (CellTiter 96® AQueous One Solution Cell Proliferation Assay, Promega). […]

red blood cells (RBCs) = experiment: Haemolysis assay; assay type: cell-based, human; details: 2.5-80 μg/mL, 3 h at 37° C.
Description: To get a first estimation of the haemolytic activity of the scaffolds and its potential to induce aggregation of red blood cells, possible disruption of red blood cells was investigated by measuring the release of haemoglobin into the supernatant according to the scheme shown in FIG. 24A. First, the red blood cells (RBCs) were treated with solutions containing PAMAM- or peptide-based scaffolds or polyplexes obtained therewith at different concentrations (2.5-80 μg/mL). The incubation was performed for 3 h at 37° C. RBCs treated with PBS under same conditions were used as a negative control while samples treated with Triton X-100 (10%) were used as a positive control corresponding to conditions of full haemolysis. After centrifugation, the absorbance at 540 nm (OD540) of the supernatants was recorded with a spectrometer. The following equation was used for the calculation of the percentages of haemolysis: […]

[1] = tested on: extrinsic part of the coagulation cascade; experiment: Prothrombin time in fresh whole blood; details: reference 70-130%
Description: (§1) As a next step, the erythrocyte aggregation propensity of the scaffolds was examined under an optical microscope to visualize possible interactions of the scaffolds and polyplexes with RBCs and their surface (FIG. 24C). […] Next, the impact on haemostasis was investigated. […] Consequently, to investigate the impact of the PAMAM- and peptide-based scaffolds on the patient's blood coagulation, these two parameters were measured in fresh whole blood after incubation of nanoparticles at different concentrations (0 nM-5 μM).

RBCs = experiment: Erythrocyte aggregation under optical microscope; details: up to 80 μg/mL
Description: as §1

intrinsic pathway = experiment: Activated partial thromboplastin time in fresh whole blood; details: 0.1 μM; reference 26-40 s
Description: as §1

| Compound | cell killing activity / saporin gene delivery, K16C npSaporin polyplexes (EGFR+ A431 cells) | cell killing activity of K16C npSaporin polyplex (EGFR+ A431 cells; up to about 1000 pM of plasmid, absence of free saponin or targeted saponin, N/P ratio 10) | haemolytic activity (red blood cells (RBCs)) | prothrombin time (PT) ([1]; 0.1 μM) [%] | prothrombin time (PT) ([1]; 0.5 μM) [%] | prothrombin time (PT) ([1]; 1 μM) [%] | prothrombin time (PT) ([1]; 5 μM) [%] | erythrocyte aggregation (RBCs) | partial thromboplastin time (PTT) (intrinsic pathway) [s] |
| --- | --- | --- | --- | --- | --- | --- | --- | --- | --- |
| K16G4CGGYK (N3)-SO18610.25 [K16C-(SO1861)0.25 eq] | the most efficient in saporin gene delivery into the cytoplasm | – | – | – | – | – | – | – | – |
| [N-]=[N+]=NCCCC[C@H](NC(=O)[C@H](Cc1ccc(O)cc1)NC(=O)CNC(=O)CNC(=O)[C@H](CS)NC(=O)CNC(=O)CNC(=O)CNC(=O)CNC(=O)[C@H](CCCCN)NC(=O)[C@H](CCCCN)NC(=O)[C@H](CCCCN)NC(=O)[C@H](CCCCN)NC(=O)[C@H](CCCCN)NC(=O)[C@H](CCCCN)NC(=O)[C@H](CCCCN)NC(=O)[C@H](CCCCN)NC(=O)[C@H](CCCCN)NC(=O)[C@H](CCCCN)NC(=O)[C@H](CCCCN)NC(=O)[C@H](CCCCN)NC(=O)[C@H](CCCCN)NC(=O)[C@H](CCCCN)NC(=O)[C@H](CCCCN)NC(=O)[C@@H](N)CCCCN)C(N)=O [K16C, K16G4CGGYK (N3)] (H-KKKKKKKKKKKKKKKKGGGGCGGY[Lys(N3)]-NH2) | practically no cell killing activity | practically no enhanced cell killing activity | surprisingly low haemolysis degree | 100 | 82 | 61 | 33.5 | did not cause any RBC aggregation | 38.5 |
